Source: PubChem BioAssay (NCI)
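Five compound concentrations were applied to cells in 96-well plates for 48 hours; endpoints were derived by simple linear interpolation of the resulting dose-response curve. TGI is the concentration that stops growth completely.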

Tests used:
Test in all cases: growth of human tumour cells (NCI), 48 h
SN12C renal = test system: SN12C renal
MDA-MB-435 = test system: MDA-MB-435
M14 melanoma = test system: M14 melanoma
CAKI-1 renal = test system: CAKI-1 renal
HS 578T breast = test system: HS 578T breast
LOX IMVI melanoma = test system: LOX IMVI melanoma
OVCAR-5 ovarian = test system: OVCAR-5 ovarian
PC-3 prostate = test system: PC-3 prostate
UACC-257 melanoma = test system: UACC-257 melanoma
MDA-MB-231 breast = test system: MDA-MB-231 breast
MOLT-4 leukemia = test system: MOLT-4 leukemia
MALME-3M melanoma = test system: MALME-3M melanoma
HL-60(TB) leukemia = test system: HL-60(TB) leukemia
SF-539 CNS = test system: SF-539 CNS
HCT-15 colon = test system: HCT-15 colon
HT29 colon = test system: HT29 colon
HCT-116 colon = test system: HCT-116 colon
T-47D breast = test system: T-47D breast
SF-295 CNS = test system: SF-295 CNS
NCI-H226 lung = test system: NCI-H226 lung
SW-620 colon = test system: SW-620 colon
U251 CNS = test system: U251 CNS
K-562 leukemia = test system: K-562 leukemia
ACHN renal = test system: ACHN renal
EKVX NSCLC = test system: EKVX NSCLC
SK-MEL-2 melanoma = test system: SK-MEL-2 melanoma
RXF 393 renal = test system: RXF 393 renal
SF-268 CNS = test system: SF-268 CNS
HOP-92 NSCLC = test system: HOP-92 NSCLC
NCI-H522 lung = test system: NCI-H522 lung
SK-OV-3 ovarian = test system: SK-OV-3 ovarian
UACC-62 melanoma = test system: UACC-62 melanoma
RPMI-8226 leukemia = test system: RPMI-8226 leukemia
NCI/ADR-RES ovarian = test system: NCI/ADR-RES ovarian
MDA-N = test system: MDA-N
DU-145 prostate = test system: DU-145 prostate
TK-10 renal = test system: TK-10 renal
CCRF-CEM leukemia = test system: CCRF-CEM leukemia
UO-31 renal = test system: UO-31 renal
A549 NSCLC = test system: A549 NSCLC
OVCAR-4 ovarian = test system: OVCAR-4 ovarian
SK-MEL-5 melanoma = test system: SK-MEL-5 melanoma
786-0 renal = test system: 786-0 renal
SR leukemia = test system: SR leukemia
MCF7 breast = test system: MCF7 breast
HOP-62 NSCLC = test system: HOP-62 NSCLC
BT-549 breast = test system: BT-549 breast
IGROV1 ovarian = test system: IGROV1 ovarian
SNB-75 CNS = test system: SNB-75 CNS
SK-MEL-28 melanoma = test system: SK-MEL-28 melanoma
NCI-H23 lung = test system: NCI-H23 lung
NCI-H460 lung = test system: NCI-H460 lung
COLO 205 colon = test system: COLO 205 colon
SNB-19 CNS = test system: SNB-19 CNS
A498 renal = test system: A498 renal
OVCAR-3 ovarian = test system: OVCAR-3 ovarian
OVCAR-8 ovarian = test system: OVCAR-8 ovarian
KM12 colon = test system: KM12 colon

For `O=C(O)c1nnsc1-c1ccc(-c2snnc2C(=O)O)cc1`, the TGI (SN12C renal) was over 100 µM, the TGI (MDA-MB-435) was over 100 µM and the TGI (M14 melanoma) was over 100 µM. The TGI (CAKI-1 renal) was over 100 µM, the TGI (HS 578T breast) was over 100 µM and the TGI (LOX IMVI melanoma) was over 100 µM. For the same compound, the TGI (OVCAR-5 ovarian) was over 100 µM, the TGI (PC-3 prostate) was over 100 µM and the TGI (UACC-257 melanoma) was over 100 µM. It also gave a TGI (MDA-MB-231 breast) of over 100 µM, a TGI (MOLT-4 leukemia) of 51.4 µM and a TGI (MALME-3M melanoma) of over 100 µM. It also gave a TGI (HL-60(TB) leukemia) of over 100 µM, a TGI (SF-539 CNS) of 69.7 µM and a TGI (HCT-15 colon) of over 100 µM. For the same compound, the TGI (HT29 colon) was over 100 µM, the TGI (HCT-116 colon) was over 100 µM and the TGI (T-47D breast) was over 100 µM. The TGI (SF-295 CNS) was over 100 µM, the TGI (NCI-H226 lung) was over 100 µM and the TGI (SW-620 colon) was over 100 µM. It also gave a TGI (U251 CNS) of over 100 µM, a TGI (K-562 leukemia) of 98.3 µM and a TGI (ACHN renal) of over 100 µM. For the same compound, the TGI (EKVX NSCLC) was over 100 µM, the TGI (SK-MEL-2 melanoma) was over 100 µM and the TGI (RXF 393 renal) was over 100 µM. It also gave a TGI (SF-268 CNS) of over 100 µM, a TGI (HOP-92 NSCLC) of over 100 µM and a TGI (NCI-H522 lung) of over 100 µM. For the same compound, the TGI (SK-OV-3 ovarian) was over 100 µM, the TGI (UACC-62 melanoma) was over 100 µM and the TGI (RPMI-8226 leukemia) was 68.6 µM. For the same compound, the TGI (NCI/ADR-RES ovarian) was over 100 µM, the TGI (MDA-N) was over 100 µM and the TGI (DU-145 prostate) was over 100 µM. For the same compound, the TGI (TK-10 renal) was over 100 µM, the TGI (CCRF-CEM leukemia) was 9.63 µM and the TGI (UO-31 renal) was over 100 µM. It also gave a TGI (A549 NSCLC) of over 100 µM, a TGI (OVCAR-4 ovarian) of over 100 µM and a TGI (SK-MEL-5 melanoma) of over 100 µM. It also gave a TGI (786-0 renal) of over 100 µM, a TGI (SR leukemia) of over 100 µM and a TGI (MCF7 breast) of over 100 µM. It also gave a TGI (HOP-62 NSCLC) of over 100 µM, a TGI (BT-549 breast) of over 100 µM and a TGI (IGROV1 ovarian) of over 100 µM. The TGI (SNB-75 CNS) was over 100 µM, the TGI (SK-MEL-28 melanoma) was over 100 µM and the TGI (NCI-H23 lung) was over 100 µM. It also gave a TGI (NCI-H460 lung) of over 100 µM, a TGI (COLO 205 colon) of over 100 µM and a TGI (SNB-19 CNS) of over 100 µM. It also gave a TGI (A498 renal) of over 100 µM, a TGI (OVCAR-3 ovarian) of over 100 µM and a TGI (OVCAR-8 ovarian) of over 100 µM. It also gave a TGI (KM12 colon) of over 100 µM.
